# From US20030083323A1, “Oral use of dehydroepiandrosterone and some of its derivatives as pigmentation regulators” (priority 2000, published 2003)
# Several values for one entry are separate records, joined by “and”; a condition that tells them apart may be missing. Equal values may be shown once.
# Experiments:
# [1] = tested on: hair (degree of canities); test: Effect of oral DHEA on canities, questionnaire at end of randomized double-blind clinical study versus placebo; format: in vivo, human; details: oral DHEA 50 mg daily, 6 months
# Protocol: The evaluation was carried out using a randomized double-blind clinical study on 140 individuals. The inclusion criteria were as follows: healthy male volunteers free of any severe pathological condition and 60 to 80 years old.
# The treatment consisted, for 6 months, of a daily dose of 50 mg of DHEA, taken in the morning, in the form of a breakable tablet, for half the individuals, or of its placebo for the other half of the individuals.
# At the end of the 6 months of treatment, the individuals answered a series of questions concerning the state of their hair and the effect of the treatment on various parameters, in particular regarding their degree of canities (improvement, worsening or no change in the number of white hairs).
# The statistical analysis is performed with Wilcoxon tests.
# [2] = tested on: human skin; test: Depigmenting power on the skin of DHEA administered orally, colorimetry b* (Minolta CR200 chromameter), randomized double-blind clinical study versus placebo; format: in vivo; details: oral DHEA 50 mg per day, 12 months, healthy female volunteers 60 to 80 years old; p=0.006, Wilcoxon test
# Protocol: The evaluation was carried out using a randomized double-blind clinical study on 140 individuals. The inclusion criteria were as follows: healthy female volunteers free of any severe pathological condition and 60 to 80 years old.
# The treatment consisted, for 12 months, of a daily dose of 50 mg of DHEA, taken in the morning, in the form of a breakable tablet, for half the individuals, or of a placebo for the other half of the individuals.
# The skin pigmentation is measured at the start of treatment (TO) and after 12 months (T12), by colorimetry using a Minolta CR200 chromameter (Minolta, 365, route de Saint-Germain 78424 Carrières sur Seine).
# This machine describes the colors in a three-dimensional space, using the system of coordinates L, a* and b* and recommended by the CIE in 1976. In this system, L* expresses the luminance or clarity of the color (0 corresponding to black and 100 to white), a is the component for separation between green (negative) and red (positive) and b*, which varies from blue (negative) to yellow (positive) expresses the pigmentation of the skin. The latter parameter was used to evaluate the change in skin color during the treatment.
# The machine is calibrated on a standard “white” (surface provided with the machine) at the beginning of each day of measurement and the calibration is controlled throughout the day. […]
# [3] = healthy male volunteers 60 to 80 years old, total 64
smiles,measurement,setting,value
"C[C@]12CC[C@H](O)CC1=CC[C@@H]1[C@@H]2CC[C@]2(C)C(=O)CC[C@@H]12 [DHEA, dehydroepiandrosterone]","degree of canities: Improvement (number of individuals, number of white hairs decreased)",[1]; [3],5
same,degree of canities: No change (number of individuals),[1]; [3],59
same,degree of canities: Worsening (number of individuals),[1]; [3],no individual experienced a worsening and 0
same,overall effect on hair pigmentation versus placebo,"[1]; difference between treatments significant, p=0.0094, Wilcoxon test",propigmenting effect on hair
same,skin pigmentation (b*) compared to the placebo group,[2],significant decrease in pigmentation
